From paper PMC3413639 (PLoS ONE, 2012) come the findings set out here.

The assay addresses T1, 5-HT1A receptors (Rattus norvegicus, UniProt P19327).
T1 sequence (P19327 1-422): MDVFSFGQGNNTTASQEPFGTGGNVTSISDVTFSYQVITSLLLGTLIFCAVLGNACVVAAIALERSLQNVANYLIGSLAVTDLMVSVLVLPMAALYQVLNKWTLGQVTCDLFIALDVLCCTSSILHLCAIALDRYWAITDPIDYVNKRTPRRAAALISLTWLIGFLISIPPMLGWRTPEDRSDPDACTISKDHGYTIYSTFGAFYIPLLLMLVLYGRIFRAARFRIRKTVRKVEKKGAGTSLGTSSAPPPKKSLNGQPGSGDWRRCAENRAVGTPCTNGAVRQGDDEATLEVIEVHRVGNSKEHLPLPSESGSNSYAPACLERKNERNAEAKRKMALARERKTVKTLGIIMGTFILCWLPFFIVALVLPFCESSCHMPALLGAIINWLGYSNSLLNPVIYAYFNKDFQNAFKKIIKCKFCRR
The assay can be described thus: In vitro ARG, inhibition of [11C]WAY-100635 binding in rat brain sections. Particulars: for Ki: 0.9 nM [11C]WAY-100635. On the set-up: Twenty-micrometer-thick frozen brain sections were preincubated; from tissue; host or cells: rat brain (hippocampus and raphe nucleus): frozen sections or living animals. As to the method:
Rats were sacrificed by decapitation. Twenty-micrometer-thick frozen brain sections were preincubated for 30 min in 50 mM Tris-HCl (pH 7.4) containing 1 mM MnCl2. […] Subsequently, the sections were rinsed twice with ice-cold Tris-HCl buffer for 5 min and then desalted with ice-cold distilled water for 10 sec. These samples were warmly blow-dried and placed in contact with an imaging plate (Fuji Film, Tokyo, Japan) for 60 min. Signals on the imaging plate were detected by BAS5000 system (Fuji Film).

As for `Cc1nnc(-c2cc3c(OC[C@@H](O)CN4CCC(c5ccc(Cl)c(Cl)c5)CC4)cccc3o2)o1.Cl` [Wf-516, (2S)-1-[4-(3,4-dichlorophenyl)piperidin-1-yl]-3-[2-(5-methyl-1,3,4-oxadiazol-2-yl)benzo[b]furan-4-yloxy]propan-2-ol monohydrochloride], for the setting “hippocampus and raphe nucleus, up to 1000 nM”, the “Blockage of 5-HT1A receptors by excess amounts of drug” value was “near-complete blockage”. Moreover, the Ki runs as follows: (hippocampus) 8.1 nM; (raphe nucleus) 7.9 nM.

In general, Ki refers to a measure of affinity in units of concentration, obtained from inhibition or displacement. Low values mean tighter binding, high ones weaker binding.
